Experimental data: patent publication US8552002B2 (Novartis AG, priority 2004, dated 2013)
Read-outs that look alike come from different tables or passages of the source.

Legend:
KDR = target: T1, KDR (Homo sapiens, UniProt P35968); assay: Inhibitory activity against KDR (VEGF-R2), in vitro data of Examples 170 and 207; format: biochemical; settings: read-out: KDR inhibition at 10 μM
T1 construct: expressed in transfected cells; host or cells: CHO cells
Outline: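 KDR tyrosine phosphorylation detected by luminescence after overnight 4° C capture of 20 μg lysate protein with PY20:AP antibody. Lysates came from cells given compound for 2 h at 37° C, then final 20 ng/ml VEGF for 5 min; compound-free medium as control.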

FGFR3 (K650E) = target: T2, FGFR3 (K650E) (Homo sapiens, UniProt P22607, K650E); assay: Recombinant GST-FGFR-3-K650E tyrosine kinase assay (33P into poly(Glu,Tyr)); format: biochemical; settings: read-out: FGFR3 (K650E) inhibition at 10 μM
T2 construct: amino acids 411-806 of the cytoplasmic domain of human FGFR-3, N-terminally fused to GST; made in house; host or cells: Sf9 insect cells (baculovirus)
T2 sequence (P22607 411-806 K650E): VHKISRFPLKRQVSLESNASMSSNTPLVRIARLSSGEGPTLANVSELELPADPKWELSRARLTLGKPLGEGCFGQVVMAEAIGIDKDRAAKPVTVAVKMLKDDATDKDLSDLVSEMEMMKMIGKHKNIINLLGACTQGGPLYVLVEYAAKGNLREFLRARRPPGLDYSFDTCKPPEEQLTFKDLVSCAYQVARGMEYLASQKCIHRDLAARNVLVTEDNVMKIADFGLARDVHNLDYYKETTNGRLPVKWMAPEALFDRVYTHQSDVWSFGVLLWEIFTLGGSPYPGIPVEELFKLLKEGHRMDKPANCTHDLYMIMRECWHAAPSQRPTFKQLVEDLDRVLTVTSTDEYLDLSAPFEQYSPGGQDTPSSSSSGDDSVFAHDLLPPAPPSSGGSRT

Tek = target: T3, Tek (Homo sapiens, UniProt Q02763); assay: Recombinant GST-Tek (Tie-2) tyrosine kinase assay (33P into poly(Glu,Tyr)); format: biochemical; settings: Examples 1 to 169
T3 construct: amino acids 773-1124 of the cytoplasmic kinase domain of human Tek, N-terminally fused to GST; made in house; host or cells: Sf9 insect cells (baculovirus)
T3 sequence (Q02763 773-1124): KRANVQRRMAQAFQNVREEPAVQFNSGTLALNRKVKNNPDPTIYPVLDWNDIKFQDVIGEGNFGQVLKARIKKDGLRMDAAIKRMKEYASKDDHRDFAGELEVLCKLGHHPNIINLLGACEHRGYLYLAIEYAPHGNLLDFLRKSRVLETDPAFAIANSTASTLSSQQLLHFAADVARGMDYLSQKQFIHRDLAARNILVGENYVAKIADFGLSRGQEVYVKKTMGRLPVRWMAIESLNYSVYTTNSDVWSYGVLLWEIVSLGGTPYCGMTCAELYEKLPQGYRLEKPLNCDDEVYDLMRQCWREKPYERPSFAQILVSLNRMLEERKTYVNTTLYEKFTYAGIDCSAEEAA
Outline: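 GST-fused human Tek kinase domain (aa 773-1124), baculovirus-expressed, 150 ng per reaction; 10 μg/mL poly(Glu,Tyr) 4:1, 4.0 μM [γ-33P]ATP, 3 mM MnCl2/3 mM MgCl2, pH 7.5, 30 min at ambient temperature. 33P uptake read on PVDF filters; IC50 by linear regression from four concentrations in duplicate.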

T1 sequence (P35968 20-1356): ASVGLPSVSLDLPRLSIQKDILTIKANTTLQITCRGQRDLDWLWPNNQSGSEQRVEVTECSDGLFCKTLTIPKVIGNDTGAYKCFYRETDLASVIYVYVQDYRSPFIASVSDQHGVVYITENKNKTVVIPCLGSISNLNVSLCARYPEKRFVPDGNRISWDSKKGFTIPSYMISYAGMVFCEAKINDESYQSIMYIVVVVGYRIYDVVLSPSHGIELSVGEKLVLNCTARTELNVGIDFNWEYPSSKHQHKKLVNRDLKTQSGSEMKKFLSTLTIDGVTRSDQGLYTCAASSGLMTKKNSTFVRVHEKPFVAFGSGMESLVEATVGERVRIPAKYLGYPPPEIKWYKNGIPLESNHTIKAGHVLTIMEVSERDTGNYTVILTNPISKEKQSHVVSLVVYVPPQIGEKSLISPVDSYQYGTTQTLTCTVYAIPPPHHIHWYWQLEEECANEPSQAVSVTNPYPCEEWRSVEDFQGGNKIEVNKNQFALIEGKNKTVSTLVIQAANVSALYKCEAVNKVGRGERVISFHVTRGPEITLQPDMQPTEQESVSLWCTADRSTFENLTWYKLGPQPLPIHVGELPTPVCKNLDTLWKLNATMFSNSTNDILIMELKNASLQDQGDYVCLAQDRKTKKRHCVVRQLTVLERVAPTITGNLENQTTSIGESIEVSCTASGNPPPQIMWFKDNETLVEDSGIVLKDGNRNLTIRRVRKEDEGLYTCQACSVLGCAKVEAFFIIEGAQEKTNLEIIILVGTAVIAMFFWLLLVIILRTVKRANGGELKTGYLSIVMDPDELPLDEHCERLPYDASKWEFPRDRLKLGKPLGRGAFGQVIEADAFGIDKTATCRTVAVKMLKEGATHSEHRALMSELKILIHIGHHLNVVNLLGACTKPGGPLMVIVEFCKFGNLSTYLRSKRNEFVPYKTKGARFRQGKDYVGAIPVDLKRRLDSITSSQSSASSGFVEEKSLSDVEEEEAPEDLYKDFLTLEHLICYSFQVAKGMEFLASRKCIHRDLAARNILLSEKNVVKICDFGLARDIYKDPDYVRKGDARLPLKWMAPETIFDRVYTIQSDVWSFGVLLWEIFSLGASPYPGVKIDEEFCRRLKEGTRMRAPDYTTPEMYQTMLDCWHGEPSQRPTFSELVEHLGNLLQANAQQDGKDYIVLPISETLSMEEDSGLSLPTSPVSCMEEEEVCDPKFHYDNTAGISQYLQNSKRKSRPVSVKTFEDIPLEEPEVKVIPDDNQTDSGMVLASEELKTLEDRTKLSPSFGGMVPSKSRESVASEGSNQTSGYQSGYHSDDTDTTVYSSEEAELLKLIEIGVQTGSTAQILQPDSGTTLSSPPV

| inhibition at 10 µM (Tek) | melting point | inhibition at 10 µM (KDR; 10 μM, Examples 1 to 169) | inhibition at 10 µM (FGFR3 (K650E); 10 μM, Examples 1 to 169) | SMILES | inhibition at 10 µM (KDR) | inhibition at 10 µM (FGFR3 (K650E)) |
| --- | --- | --- | --- | --- | --- | --- |
| 12 to 100% | 138 to 142 °C | 67 to 100% | 27 to 100% | CN1CCN(c2cccc(Nc3cc(NC(=O)Nc4c(Cl)cc(Cl)cc4Cl)ncn3)c2)CC1 [Example 86, 1-{6-[3-(4-Methyl-piperazin-1-yl)-phenylamino]-pyrimidin-4-yl}-3-(2,4,6-trichloro-phenyl)-urea] |  |  |
| 12 to 100% | 223 to 225 °C | 67 to 100% | 27 to 100% | CN1CCN(c2ccc(Nc3cc(NC(=O)Nc4cc(Cl)ccc4Cl)ncn3)cc2)CC1 [Example 72, 1-(2,5-Dichloro-Phenyl)-3-{6-[4-(4-methyl-piperazin-1-yl)-phenylamino]-pyrimidin-4-yl}-urea] |  |  |
| 12 to 100% | 198 to 200 °C | 67 to 100% | 27 to 100% | CN1CCC(COc2cccc(Nc3cc(NC(=O)Nc4c(Cl)cccc4Cl)ncn3)c2)CC1 [Example 80, 1-(2,6-Dichloro-Phenyl)-3-{6-[3-(1-methyl-piperidin-4-ylmethoxy)-phenylamino]-pyrimidin-4-yl}-urea] |  |  |
| 12 to 100% | 183 to 185 °C | 67 to 100% | 27 to 100% | CN1CCC(COc2ccc(Nc3cc(NC(=O)Nc4c(Cl)cccc4Cl)ncn3)cc2)CC1 [Example 71, 1-(2,6-Dichloro-phenyl)-3-{6-[4-(1-methyl-piperidin-4-ylmethoxy)-phenylamino]-pyrimidin-4-yl}-urea] |  |  |
| 12 to 100% | 233 °C | 67 to 100% | 27 to 100% | Cc1cccc(Cl)c1NC(=O)Nc1cc(NC(C)C)ncn1 [Example 65, 1-(2-Chloro-6-methyl-phenyl)-3-(6-isopropylamino-pyrimidin-4-yl)-urea] |  |  |
| 12 to 100% | 222 to 224 °C | 67 to 100% | 27 to 100% | O=C(Nc1cc(N[C@H]2CC[C@H](OC(=O)Nc3c(Cl)cccc3Cl)CC2)ncn1)Nc1c(Cl)cccc1Cl [Example 66, (2,6-dichloro-phenyl)-carbamic acid 4-{6-[3-(2,6-dichloro-phenyl)-ureido]-pyrimidin-4-ylamino}-cyclohexylester] |  |  |
| 12 to 100% | 252 to 254 °C | 67 to 100% | 27 to 100% | CN1CCN(c2ccc(Nc3cc(NC(=O)Nc4cc(Cl)c(Cl)cc4Cl)ncn3)cc2)CC1 [Example 74, 1-{6-[4-(4-Methyl-piperazin-1-yl)-phenylamino]-pyrimidin-4-yl}-3-(2,4,5-trichloro-phenyl)-urea] |  |  |
| 12 to 100% | 203 to 204 °C | 67 to 100% | 27 to 100% | CC(C)Nc1cc(NC(=O)Nc2c(Cl)cccc2Cl)ncn1 [Example 68, 1-(2,6-Dichloro-phenyl)-3-(6-isopropylamino-pyrimidin-4-yl)-urea] |  |  |
| 12 to 100% | 209 to 211 °C | 67 to 100% | 27 to 100% | CN1CCN(c2ccc(Nc3cc(NC(=O)Nc4c(Cl)cc(Cl)cc4Cl)ncn3)cc2)CC1 [Example 73, 1-{6-[4-(4-Methyl-piperazin-1-yl)-phenylamino]-pyrimidin-4-yl}-3-(2,4,6-trichloro-phenyl)-urea] |  |  |
| 12 to 100% | 221 °C (dec.) | 67 to 100% | 27 to 100% | COc1cc(OC)c(Cl)c(NC(=O)N(C)c2cc(Nc3ccc(N4CCN(C)CC4)cc3)ncn2)c1Cl [Example 2, 3-(2,6-Dichloro-3,5-dimethoxy-phenyl)-1-methyl-1-{6-[4-(4-methyl-piperazin-1-yl)-phenylamino]-pyrimidin-4-yl}-urea] |  |  |
| 12 to 100% | 149 to 152 °C | 67 to 100% | 27 to 100% | Cc1cccc(Cl)c1NC(=O)Nc1cc(N[C@H]2CC[C@H](O)CC2)ncn1 [Example 90, 1-(2-Chloro-6-methyl-phenyl)-3-[6-((trans)-4-hydroxy-cyclohexylamino)-pyrimidin-4-yl]-urea] |  |  |
| 12 to 100% | 218 to 220 °C | 67 to 100% | 27 to 100% | CC(C)Nc1cc(NC(=O)Nc2c(Cl)cc(Cl)cc2Cl)ncn1 [Example 67, 1-(6-Isopropylamino-pyrimidin-4-yl)-3-(2,4,6-trichloro-phenyl)-urea] |  |  |
| 12 to 100% | 178 to 180 °C | 67 to 100% | 27 to 100% | Cc1cccc(Cl)c1NC(=O)Nc1cc(Nc2ccc(OCC3CCN(C)CC3)cc2)ncn1 [Example 70, 1-(2-Chloro-6-methyl-phenyl)-3-{6-[4-(1-methyl-piperidin-4-ylmethoxy)-phenylamino]-pyrimidin-4-yl}-urea] |  |  |
| 12 to 100% | 165 to 175 °C | 67 to 100% | 27 to 100% | CN1CCN(C(=O)c2ccc(Nc3cc(NC(=O)Nc4c(Cl)cc(Cl)cc4Cl)ncn3)cc2)CC1 [Example 85, 1-{6-[4-(4-Methyl-piperazin-1-carbonyl)-phenylamino]-pyrimidin-4-yl}-3-(2,4,6-trichloro-phenyl)-urea] |  |  |
| 12 to 100% | 194 to 196 °C | 67 to 100% | 27 to 100% | CN1CCN(Cc2ccc(Nc3cc(NC(=O)Nc4c(Cl)cc(Cl)cc4Cl)ncn3)cc2)CC1 [Example 84, 1-{6-[4-(4-Methyl-piperazin-1-ylmethyl)-phenylamino]-pyrimidin-4-yl}-3-(2,4,6-trichloro-phenyl)-urea] |  |  |
| 12 to 100% | 260 to 262 °C | 67 to 100% | 27 to 100% | CN1CCN(c2ccc(Nc3cc(NC(=O)Nc4ccc(Cl)c(Cl)c4)ncn3)cc2)CC1 [Example 75, 1-(3,4-Dichloro-phenyl)-3-{6-[4-(4-methyl-piperazin-1-yl)-phenylamino]-pyrimidin-4-yl}-urea] |  |  |
| 12 to 100% | 199 to 201 °C | 67 to 100% | 27 to 100% | Cc1cccc(Cl)c1NC(=O)Nc1cc(Nc2ccc(CN3CCN(C)CC3)cc2)ncn1 [Example 82, 1-(2-Chloro-6-methyl-phenyl)-3-{6-[4-(4-methyl-piperazin-1-ylmethyl)-phenylamino]-pyrimidin-4-yl}-urea] |  |  |
| 12 to 100% | 222 to 225 °C | 67 to 100% | 27 to 100% | CN1CCC(COc2cccc(Nc3cc(NC(=O)Nc4c(Cl)cc(Cl)cc4Cl)ncn3)c2)CC1 [Example 81, 1-{6-[3-(1-Methyl-piperidin-4-ylmethoxy)-phenylamino]-pyrimidin-4-yl}-3-(2,4,6-trichloro-phenyl)-urea] |  |  |
| 12 to 100% | 189 to 191 °C | 67 to 100% | 27 to 100% | CN1CCC(COc2ccc(Nc3cc(NC(=O)Nc4c(Cl)cc(Cl)cc4Cl)ncn3)cc2)CC1 [Example 69, 1-{6-[4-(1-Methyl-piperidin-4-ylmethoxy)-phenylamino]-pyrimidin-4-yl}-3-(2,4,6-trichloro-phenyl)-urea] |  |  |
| 12 to 100% | 200 to 204 °C | 67 to 100% | 27 to 100% | Cc1cccc(Cl)c1NC(=O)Nc1cc(Nc2cccc(OCC3CCN(C)CC3)c2)ncn1 [Example 79, 1-(2-Chloro-6-methyl-phenyl)-3-{6-[3-(1-methyl-piperidin-4-ylmethoxy)-phenylamino]-pyrimidin-4-yl}-urea] |  |  |

| SMILES | inhibition at 10 µM (Tek) | melting point | inhibition at 10 µM (KDR; 10 μM, Examples 1 to 169) | inhibition at 10 µM (FGFR3 (K650E); 10 μM, Examples 1 to 169) | inhibition at 10 µM (KDR) | inhibition at 10 µM (FGFR3 (K650E)) |
| --- | --- | --- | --- | --- | --- | --- |
| CC(C)(C)[Si](C)(C)O[C@H]1CC[C@H](Nc2cc(NC(=O)Nc3c(Cl)cc(Cl)cc3Cl)ncn2)CC1 [Example 87, 1-{6-[(trans)-4-(tert-Butyl-dimethyl-silanyloxy)-cyclohexylamino]-pyrimidin-4-yl}-3-(2,4,6-trichloro-phenyl)-urea] | 12 to 100% | 198 to 199 °C |  |  | 67 to 100% | 27 to 100% |
| Cc1cccc(Cl)c1NC(=O)Nc1cc(N[C@H]2CC[C@H](O[Si](C)(C)C(C)(C)C)CC2)ncn1 [Example 89, 1-{6-[(trans)-4-(tert-Butyl-dimethyl-silanyloxy)-cyclohexylamino]-pyrimidin-4-yl}-3-(2-chloro-6-methyl-phenyl)-urea] | 12 to 100% | 218 to 220 °C |  |  | 67 to 100% | 27 to 100% |
| CC(C)(C)[Si](C)(C)O[C@H]1CC[C@H](Nc2cc(NC(=O)Nc3c(Cl)cccc3Cl)ncn2)CC1 [Example 91, 1-{6-[(trans)-4-(tert-Butyl-dimethyl-silanyloxy)-cyclohexylamino]-pyrimidin-4-yl}3-(2,6-dichloro-phenyl)-urea] | 12 to 100% | 211 to 212 °C |  |  | 67 to 100% | 27 to 100% |
